Several values for one entry are separate records, joined by “and”; a condition that tells them apart may be missing. Equal values may be shown once. Read-outs that look alike come from different tables or passages of the source.
How the values were obtained:
tubulin = assay: BODIPY-vinblastine/tubulin competitive displacement assay; assay type: binding; settings: tubulin 0.91 μM, BODIPY-VBL 1.8 μM, vinblastine analogue 18 μM, 37° C., average of 4 measurements ± SD
Description: As a consequence, the commercially available BODIPY-vinblastine fluorescent probe was used to assess tubulin binding and develop its use in a direct competitive binding assay.^15 [(a) Jiang et al., Cancer Res. 1998, 58, 5389; (b) Zhang et al., PloS one 2009, 4, e4881; (c) Rai et al., PloS one 2012, 7, e44311 and (d) Rashid et al., Biochemistry 2015, 54, 2149.]
In carrying out this study, tubulin (0.1 mg/mL, 0.91 μM) was incubated with BODIPY-vinblastine (BODIPY-VBL, 1.8 μM) and a vinblastine analogue (18 μM) at 37° C. in PEM buffer containing 850 μM GTP. The BODIPY-VBL fluorescence intensity (FI) (ex: 480 nm, em: 514 nm) of 100 μL aliquots from each incubation were measured in a fluorescence micro-plate reader at 37° C. Control studies were performed with BODIPY-VBL (control 1) in the absence of a competitive ligand (maximum FI enhancement due to tubulin binding) and (control 2) in the absence of tubulin (no FI enhancement due to tubulin binding). % BODIPY-VBL displacement was calculated by the formula (control 2 FI−experiment FI)/(control 2 FI−control 1 FI)×100. Reported values are the average 4 measurements±the standard deviation.
100 μL of 1 mg/mL tubulin in PEM and 25 μL of 72 μM BODIPY-VBL in DMSO were added to 850 μL of buffer (PEM+1 mM GTP). The solution was incubated at 37° C. for 15 minutes, after which 25 μL of 720 μM competitive ligand in DMSO was added. The solution was incubated for an additional 60 minutes at 37° C., after which 100 μL aliquots of each incubation were transferred into the wells of a 96-well plate (warmed to 37° C. in the plate reader). The BODIPY-vinblastine fluorescence intensity was measured (Ex 480 nm, Em 514 nm, Cutoff 495 nm) at 37° C. Control measurements were performed with BODIPY-VBL (control 1) in the absence of a competitive ligand (maximum FI enhancement due to tubulin binding) and (control 2) in the absence of tubulin (no FI enhancement due to tubulin binding). % BODIPY-VBL displacement was calculated by the formula (Control 2 FI−Experiment FI)/(Control 2 FI−Control 1 FI)×100. PEM: 80 mM PIPES-K pH 6.8, 2 mM MgSO4, 0.5 mM EGTA pH 6.8.

[1] = tested on: HCT116/VM46 (a vinblastine-resistant strain of HCT116) cells; settings: previously reported (footnote a, Barker et al. 2013) or background art table, cited from earlier work
[2] = tested on: L1210 (mouse lymphocytic leukemia) cells; settings: previously reported in Barker et al., ACS Med. Chem. Lett. 2013, 4, 985; cited from earlier work
[3] = tested on: HCT116 (human colorectal carcinoma) cells; settings: previously reported (footnote a, Barker et al. 2013) or background art table, cited from earlier work
[4] = tested on: L1210 (mouse lymphocytic leukemia) cells; assay: Cell growth inhibition assay, L1210; assay type: cell-based; settings: 72 hours incubation, phosphatase assay
Description: (§1) Compounds were tested for their cell growth inhibition of L1210 (ATCC no. CCL-219, mouse lymphocytic leukemia) cells, HCT116 (ATCC no. CCL-247, human colorectal carcinoma) cells, and HCT116/VM46 (a vinblastine-resistant strain of HCT116) cells in culture. A population of cells (>1×10^6 cells/mL as determined with a hemocytometer) was diluted with an appropriate amount of Dulbecco's Modified Eagle Medium (DMEM, Gibco) containing 10% fetal bovine serum (FBS, Gibco) to a final concentration of 30000 cells/mL.
(§2) To each well of a 96-well plate (Corning Costar), 100 μL of the cell media solution was added with a multichannel pipet. The cultures were incubated at 37° C. in an atmosphere of 5% CO2 and 95% humidified air for 24 hours. The test compounds were added to the plate as follows: test substances were diluted in DMSO to a concentration of 1 mM and 10-fold serial dilutions were performed on a separate 96-well plate. Fresh culture medium (100 μL) was added to each well of cells to constitute 200 μL of medium per well followed by 2 μL of each test agent. Compounds were tested in duplicate (n=2-18 times) at six concentrations between 0-1000 nM or 0-10000 nM. Following addition, cultures were incubated for an additional 72 hours.
(§3) A phosphatase assay was used to establish the IC50 values as follows: the media in each cell was removed and 100 μL of phosphatase solution (100 mg phosphatase substrate in 30 mL of 0.1 M NaOAc, pH 5.5, 0.1% Triton X-100 buffer) was added to each well. The plates were incubated at 37° C. for either 5 minutes (L1210) or 15 minutes (HCT116 and HCT116/VM46). After the given incubation time, 50 μL of 0.1 N NaOH was added to each well and the absorption at 405 nm was determined using a 96 well plate reader. As the absorption is directly proportional to the number of living cells, the IC50 values were calculated and the reported values represent of the average of 4-36 determinations (SD±10%).

[5] = tested on: HCT116 (human colorectal carcinoma) cells; assay: cells; assay type: cell-based
Description: as §1, §2, §3

[6] = tested on: HCT116/VM46 (a vinblastine-resistant strain of HCT116) cells; assay: Cell growth inhibition assay, HCT116/VM46; assay type: cell-based, human; settings: for IC50: 72 hours incubation, phosphatase assay, Pgp-overexpressing resistant line; for increase in potency relative to vinblastine, HCT116/VM46: resistant line
Description: as §1, §2, §3

[7] = tested on: vinblastine sensitive tumor cell lines (L1210 and HCT116); assay: Cell growth inhibition, vinblastine-sensitive lines stated together; assay type: cell-based; settings: cell growth inhibition; for increase in potency relative to vinblastine: vinblastine-sensitive lines
Description: as §1, §2, §3

[8] = 72 hours incubation, phosphatase assay, read-out: IC50, HCT116
[9] = listed beside % displacement in second TABLE 5, read-out: IC50 (nM, HCT116)

| SMILES | % displacement of BODIPY-vinblastine bound to tubulin (tubulin) | IC50 [1] [pM] | IC50 [2] [pM] | IC50 [3] [pM] | IC50 [4] [pM] | IC50 [5, 8] [nM] | IC50 [5, 9] [nM] | IC50 [6] [pM] | increase in potency relative to vinblastine, HCT116/VM46 [6] [fold] | more potent than the C20′ urea 9 [7] [fold] | increase in potency relative to vinblastine [7] | also measured |
| --- | --- | --- | --- | --- | --- | --- | --- | --- | --- | --- | --- | --- |
| CC[C@]1(O)C[C@@H]2CN(CCc3c([nH]c4ccccc34)[C@@](C(=O)OC)(c3cc4c(cc3OC)N(C)[C@H]3[C@@](O)(C(=O)OC)[C@H](OC(C)=O)[C@]5(CC)C=CCN6CC[C@]43[C@@H]65)C2)C1 [Compound 1, Vinblastine, reference compound] | 31 ± 9% | 600000 | – | – | – | – | – | – | – | – | – | % displacement of BODIPY-vinblastine bound to tubulin (tubulin; listed as vinblastine): 31% |
| CC[C@]1(NC(=O)N2CCCC2)C[C@H]2CN(CCc3c([nH]c4ccccc34)[C@@](C(=O)OC)(c3cc4c(cc3OC)N(C)[C@H]3[C@@](O)(C(=O)OC)[C@H](OC(C)=O)[C@]5(CC)C=CCN6CC[C@]43[C@@H]65)C2)C1 [Compound 8] | – | 50000 | 700 | 720 | – | – | – | – | – | – | – | IC50 ([3]; listed as drawing 14): 700 pM |
| CC[C@]1(NC(=O)N2Cc3ccccc3C2)C[C@H]2CN(CCc3c([nH]c4ccccc34)[C@@](C(=O)OC)(c3cc4c(cc3OC)N(C)[C@H]3[C@@](O)(C(=O)OC)[C@H](OC(C)=O)[C@]5(CC)C=CCN6CC[C@]43[C@@H]65)C2)C1 [Compound 9] | – | 7500 | 510 | 600 | – | – | – | – | – | – | – | IC50 ([3]; listed as drawing 15): 500 pM; IC50 ([1]; listed as drawing 15): 4000 pM |
| CC[C@]1(NC(=O)N2CCCCC2)C[C@H]2CN(CCc3c([nH]c4ccccc34)[C@@](C(=O)OC)(c3cc4c(cc3OC)N(C)[C@H]3[C@@](O)(C(=O)OC)[C@H](OC(C)=O)[C@]5(CC)C=CCN6CC[C@]43[C@@H]65)C2)C1 [Compound 23] | – | 50000 | 5500 | 3900 | – | – | – | – | – | – | – | – |
| CC[C@]1(NC(=O)N2Cc3ccc(OC)cc3C2)C[C@H]2CN(CCc3c([nH]c4ccccc34)[C@@](C(=O)OC)(c3cc4c(cc3OC)N(C)[C@H]3[C@@](O)(C(=O)OC)[C@H](OC(C)=O)[C@]5(CC)C=CCN6CC[C@]43[C@@H]65)C2)C1 [Compound 35] | – | 8600 | 480 | 540 | – | – | – | – | – | – | – | – |
| CC[C@]1(NC(=O)N2Cc3ccc(NC(=O)c4ccncn4)cc3C2)C[C@H]2CN(CCc3c([nH]c4ccccc34)[C@@](C(=O)OC)(c3cc4c(cc3OC)N(C)[C@H]3[C@@](O)(C(=O)OC)[C@H](OC(C)=O)[C@]5(CC)C=CCN6CC[C@]43[C@@H]65)C2)C1 [Compound 58] | 100% and 105 ± 5% | – | – | – | 62 | 0.074 | 0.07 | 880 | 700 | 10 | 100 fold | – |
| CC[C@]1(NC(=O)N2Cc3ccc(NC(=O)c4cnccn4)cc3C2)C[C@H]2CN(CCc3c([nH]c4ccccc34)[C@@](C(=O)OC)(c3cc4c(cc3OC)N(C)[C@H]3[C@@](O)(C(=O)OC)[C@H](OC(C)=O)[C@]5(CC)C=CCN6CC[C@]43[C@@H]65)C2)C1 [Compound 60] | 100% and 104 ± 12% | – | – | – | 59 | 0.075 | 0.07 | 830 | 700 | 10 | 100 fold | – |
| CC[C@]1(NC(=O)N2Cc3ccc(NC(=O)c4cccnn4)cc3C2)C[C@H]2CN(CCc3c([nH]c4ccccc34)[C@@](C(=O)OC)(c3cc4c(cc3OC)N(C)[C@H]3[C@@](O)(C(=O)OC)[C@H](OC(C)=O)[C@]5(CC)C=CCN6CC[C@]43[C@@H]65)C2)C1 [Compound 61] | 100% and 101 ± 4% | – | – | – | 59 | 0.067 | 0.07 | 870 | 700 | 10 | 100 fold | – |
| CC[C@]1(O)C[C@H]2CN(CCc3c([nH]c4ccc(F)cc34)[C@@](C(=O)OC)(c3cc4c(cc3OC)N(C)[C@H]3[C@@](O)(C(=O)OC)[C@H](OC(C)=O)[C@]5(CC)C=CCN6CC[C@]43[C@@H]65)C2)C1 [Compound 71, 10′-fluorovinblastine, reference compound] | 48 ± 7% | – | – | – | – | – | 0.8 | – | – | – | roughly 10 fold | – |
